Laboratory results from patent US5155215A, “Polychelating agents for image and spectral enhancement (and spectral shift)” (priority 1990, dated 1992).

Legend:
[1] = cited from earlier work
[2] = precipitation at body pH; cited from earlier work
[3] = T1 of freshly excised rat spleens after injection; format: in vivo, Sprague-Dawley rats
Excerpt: Post-contrast images were obtained serially beginning immediately after the i.v. injection of contrast agents and continuing for several hours thereafter.

[4] = Whole-organ liver T1 after albumin microspheres; format: in vivo, CBA mice; details: 0.1 mmol/kg Gd, 30 min
Procedure: Microspheres (Gd:DTPA:dimeglumine:albumin) were tested in vivo by injecting them intravenously into 25 gm CBA mice (2 animals per group), allowing 30 minutes for uptake and sequestration by liver Kupffer cells, sacrificing the mice, and testing the excised organs. […] Radioisotope was quantified in a standard gamma counter.
The T1-weighted proton relaxation times of mouse livers were quantified by determining the whole-organ T1 relaxation time in a 20 MHz NMR spectrometer.

[5] = In vivo NMR enhancement of normal rat tissues, image T1 and enhancement (0.35 Tesla Diasonics); set-up: species or system Sprague-Dawley rats
Excerpt: Sprague-Dawley rats were imaged using a 0.35-Tesla, Diasonics clinical MR imaging system and a 30-cm rf coil. Three clinically relevant pulse sequences were used: 1) spin-echo with a TR of 0.5 seconds (for T1-weighted images), 2) inversion-recovery (IR) (for T1-weighted images), and 3) spin-echo with a TR of 2.0 seconds (for T2-weighted images). Diasonics software was used to calculate the area-averaged tissue intensities before and after injection of contrast agents. Dual pulse sequences (spin-echo, with TR's of 0.5 and 1.5 seconds or 1.0 and 2.0 seconds) were also used to calculate the in vivo T1 relaxation times. At the conclusion of imaging, the liver, spleen and kidneys were excised and their T1 (IR) and T2 (Carr-Purcell-Meiboom-Gill) relaxation times were determined at 37° C., using an IBM pC20 Minispectroneter. For these in vitro experiments, uninjected rats were used in place of preinjection controls.

[6] = system: 7777-strain Morris hepatoma; assay: In vivo NMR image enhancement of a primary liver tumor (hepatoma); details: after injection
Procedure: After two to three weeks the local tumors had reached an average diameter of 0.5 and 1.0 cm. The rats were then imaged both before and after i.v. injections of Gd-DTPA or microsphere Gd-DTPA. MR imaging was performed in a 30cm rf coil with a 0.35 Tesla, Diasonics clinical MRI system (as described above). Post-contrast images were obtained serially beginning immediately after injection and continuing for several hours thereafter.

[7] = Proton T1 relaxation times in mouse organs (DEAE-dextran agents); format: in vivo, CBA mice
Procedure: Test materials were injected i.v. into 25 gm CBA mice. At 30 min the mice were sacrificed by decapitation (exsanguination) and the excised livers and kidneys assessed for changes in proton T1 relaxation times (20 MHz; IR pulse sequence). Doses of test materials were made equivalent based on in vitro potency (ID50 analysis).

[8] = system: human brain tumors; renal tumors; details: cited from earlier work
[9] = cited from earlier work; remark: listed apart in the source
[10] = MR imaging and proton T1 relaxation times in rats (DEAE-dextran agents); format: in vivo, Sprague-Dawley rats; details: Gd 0.30 (polymer, dimeglumine) or 0.15 (microspheres) mmol/kg
Procedure: Test materials were injected intravenously into 500 gm Sprague-Dawley rats. at approximately 30 minutes, the rats were placed in the head coil of a 0.35 Tesla clinical imaging device (Diasonics Corp.), and T1-weighted images (using both a spin-echo pulse sequence at TR's of 0.5, 1.5 and 2.0, and an inversion recovery sequence) were obtained on image slices of 0.5 cm thickness taken through the liver and kidneys. T1 relaxation times were determined from the TR=0.5 and 2.0 data using area-averaging of signal intensities and a proprietary software program for calculations. At the completion of imaging, the rats were sacrificed by decapitation (exsanguination). Their livers, kidneys and spleens were excised, tested for in vitro correlations with the in vivo changes in proton T1 relaxation times and then placed in buffered formalin fixative for histopathologic evaluation.

[11] = Enhanced T1-weighted blood flow images in cardiac chambers; format: in vivo, rats; details: i.v., rat heart chambers
Procedure: Gd:DTPA-dextran microspheres (at 0.03 mmoles Gd/kg) were injected i.v. at time zero into Sprayer-Dawley rats and images were obtained immediately and serially each 5 minutes×4 (spin-echo, multi-echo, TR=0.5 & 1.5).

[12] = Liver T1 decrease / liver image enhancement, effective dose; format: in vivo, mice and rats; details: 30 min
[13] = In vitro T1 relaxation of water protons (IBM PC 20 Minispectrometer, 20 MHz); format: physicochemical
Procedure: Microspheres were suspended at a concentration of 1 mg/ml by brief sonification. Because albumin microspheres have a fast-release (surface) component of Gd:DTPA as well as a controlled-release (interior) component, the spheres were washed, resuspended, and diluted serially for testing.
Thus, it was not necessary to wash and resuspend the materials prior to NMR testing.

In the case of `O=C(O)CN1CCN(CC(=O)O)CCN(CC(=O)O)CCN(CC(=O)O)CC1` [DOTA, 1,4,7,10-tetraazacyclododecane-N,N',N"-tetraacetic acid], the “Relaxivity relative to Gd-DTPA” value ([1]; wide range of Larmor frequencies) is listed as “approximately 2 times greater”.
For `[Gd]` [Gd, gadolinium], the Paramagnetic dipole ([1]; Gd, seven unpaired 4f electrons) is listed as 7.9 Bohr magnetons and the “Toxicity of the free form” value [2] is listed as “quite toxic”.
In the case of `CNC[C@H](O)[C@@H](O)[C@H](O)[C@H](O)CO.CNC[C@H](O)[C@@H](O)[C@H](O)[C@H](O)CO.O=C([O-])CN(CCN(CC(=O)[O-])CC(=O)O)CCN(CC(=O)[O-])CC(=O)O.[Gd+3]` [Gd:DTPA dimeglumine], the “Relaxivity at higher proton Larmor frequencies” value ([1]; typically 15 Mhz) is listed as “marked decrease in relaxivity”, the “% Decrease in T1 of Spleen (35 min post vs. pre)” value [3] is listed as 14.4% and the “Liver T1, % of Control” value [4] is listed as 98.5%. The “Liver T1” value ([4]; saline 332) was 327 ms, the “% Decrease in T1, kidney (30 min post vs. pre)” value ([5]; kidney, 30 min, image T1) was 55.7% and the “Time after which all liver enhancement was lost” value ([5]; liver) was 50 min. The “% Decrease in T1, liver (30 min post vs. pre)” value ([5]; liver, 30 min, image T1) was 24.6%, the “Bone marrow image enhancement” value ([5]; visual inspection) was “not Gd:DTPA dimeglumine” and the “Time by which tumor contrast was significantly reduced” value [6] was 1.5 h. The “T1 (% of control), kidney” value ([7]; kidney, 30 min, 0.23 mmol/kg DEAE agents, 0.47 mmol/kg Gd:DTPA dimeglumine, control 385 msec) was 24%, the “T1 (% of control), liver” value ([7]; liver, 30 min, 0.23 mmol/kg DEAE agents, 0.47 mmol/kg Gd:DTPA dimeglumine, control 330 msec) was 83% and the “Effectiveness at decreasing the T1 of liver” value ([7]; mouse liver, very high doses) was “relatively ineffective”. The “Enhancement of renal tumors” value ([8]; human, in vivo) was “enhanced satisfactorily”, the “Enhancement of human brain tumors” value ([8]; preliminary clinical results) was “almost all human brain tumors undergo significant enhancement” and the “Bloodstream clearance (1/2)” value ([9]; Weinman et al.) was 20 min. For the same compound, the “Quantity cleared by the kidneys” value ([9]; Weinman et al.) was greater than 90%, the Imaging window ([9]; in vivo) was “ca. 30 minutes” and the “Number of optimal images after each injection” value ([9]; in vivo) was “ca. 2”. For the same compound, the “T1 (% of control), kidney, in vitro” value ([10]; excised kidney, control 492 msec) was 25%, the “T1 (% of control), liver, in vitro” value ([10]; excised liver, control 275 msec) was 88% and the “T1 (% of control), spleen, in vitro” value ([10]; excised spleen, control 464 msec) was 86%. The “T1 (% of control), kidney, in vivo” value ([10]; kidney, imaging) was 57%, the “T1 (% of control), liver, in vivo” value ([10]; liver, imaging) was 83% and the “Enhancement of blood flow images” value [11] was “almost completely ineffective”. For the same compound, the “Change in liver T1's at the usual 30-minute imaging interval” value [12] was “minimal changes in liver T1's”, the IC50 ([13]; Gd, read-out: ID50 as molar concentration of Gd) was 90 µM and the “ID50 (total weight)” value ([13]; T1 to 50% of phosphate-buffered saline) was 84 µg/mL. The “Material concentration required to produce a 50% decrease in the T1 of water protons” value ([13]; total material) was 90 µg/mL.
